Measured values: patent US8012939B2 (Tibotec Pharmaceuticals Ltd. Co, priority 2005, dated 2011)
Where two headings read alike, the source gives them in different places.

Key:
[1] = rcm bond, Hoveyda-Grubbs 1st generation catalyst, 1,2-dichloroethane, 70.0 °C
[2] = tested on: HCV replicons (HCV type 1b, Huh-7 luc/neo cells); experiment: Replicon assay (Huh-Luc cells, luciferase read-out); type: cell-based; conditions: Hepatitis C virus, Huh-7, 72 h
Description: The compounds of formula (I) were examined for activity in the inhibition of HCV RNA replication in a cellular assay. […] The cellular assay was based on a bicistronic expression construct, as described by Lohmann et al. (1999) Science vol. 285 pp. 110-113 with modifications described by Krieger et al. (2001) Journal of Virology 75: 4614-4624, in a multi-target screening strategy. In essence, the method was as follows.
The assay utilized the stably transfected cell line Huh-7 luc/neo (hereafter referred to as Huh-Luc). This cell line harbors an RNA encoding a bicistronic expression construct comprising the wild type NS3-NS5B regions of HCV type 1b translated from an Internal Ribosome Entry Site (IRES) from encephalomyocarditis virus (EMCV), preceded by a reporter portion (FfL-luciferase), and a selectable marker portion (neo^R, neomycine phosphotransferase). The construct is bordered by 5′ and 3′ NTRs (non-translated regions) from HCV type 1b. Continued culture of the replicon cells in the presence of G418 (neo^R) is dependent on the replication of the HCV RNA. The stably transfected replicon cells that express HCV RNA, which replicates autonomously and to high levels, encoding inter alia luciferase, are used for screening the antiviral compounds.
The replicon cells were plated in 384 well plates in the presence of the test and control compounds which were added in various concentrations. Following an incubation of three days, HCV replication was measured by assaying luciferase activity (using standard luciferase assay substrates and reagents and a Perkin Elmer ViewLux™ ultraHTS microplate imager). Replicon cells in the control cultures have high luciferase expression in the absence of any inhibitor. The inhibitory activity of the compound on luciferase activity was monitored on the Huh-Luc cells, enabling a doseresponse curve for each test compound.

[3] = biological target: T1, HCV NS3/4A protease complexes (full-length hepatitis C NS3 protease enzyme with NS4A cofactor) (Hepatitis C virus genotype 1a, UniProt P27958); experiment: Inhibition assay (enzymatic assay, depsipeptide substrate hydrolysis); type: biochemical; conditions: enzyme 1 nM, 25 μM NS4A cofactor, 0.5 μM substrate, 30° C., pH 7.5, model for competitive inhibition
T1 construct: full-length hepatitis C NS3 protease enzyme
T1 sequence (P27958 1027-1657, one chain of several): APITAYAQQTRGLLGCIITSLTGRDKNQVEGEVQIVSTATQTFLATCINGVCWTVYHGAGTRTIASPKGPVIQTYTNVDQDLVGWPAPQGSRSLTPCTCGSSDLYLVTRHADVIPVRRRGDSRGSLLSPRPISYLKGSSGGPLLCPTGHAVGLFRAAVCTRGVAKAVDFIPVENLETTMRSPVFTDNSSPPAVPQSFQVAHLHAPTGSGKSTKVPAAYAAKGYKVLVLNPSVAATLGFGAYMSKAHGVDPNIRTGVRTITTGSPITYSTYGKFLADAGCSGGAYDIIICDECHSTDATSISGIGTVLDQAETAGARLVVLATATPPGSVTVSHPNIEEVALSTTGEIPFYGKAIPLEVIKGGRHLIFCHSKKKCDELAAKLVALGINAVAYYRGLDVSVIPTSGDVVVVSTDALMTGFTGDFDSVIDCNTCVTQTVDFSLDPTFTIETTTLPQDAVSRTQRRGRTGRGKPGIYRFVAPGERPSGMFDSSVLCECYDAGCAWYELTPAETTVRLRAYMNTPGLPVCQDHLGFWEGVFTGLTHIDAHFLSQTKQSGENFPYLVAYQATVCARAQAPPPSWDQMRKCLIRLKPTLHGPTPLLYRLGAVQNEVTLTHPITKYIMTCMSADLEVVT
Procedure: [Landro, 1997 #Biochem 36 9340-9348]. […] The solutions were stored at −20° C. between measurements.
[Liu, 1999 Analytical Biochemistry 267 331-335].

[4] = Huh-Luc cells, incubation of three days, luciferase activity

SMILES | EC50 [2, 4] [µM] | Ki [3] [µM] | also measured
CCOC(=O)C12CC1C=CCCCCN(C)C(=O)C1CC(Oc3nc(-c4nc(C5CC5)cs4)cc4cc(OC)ccc34)CC1C(=O)N2 (stereo not shown) | – | – | ring closure, yield of all isomers ([1]; from C=CCCCCN(C)C(=O)C1CC(Oc2nc(-c3nc(C4CC4)cs3)cc3cc(OC)ccc23)CC1C(=O)NC1(C(=O)OCC)CC1C=C, 0.8 mM, 12.0 h): 85%
CCOC(=O)C12CC1C=CCCCCN(C)C(=O)N1CC(OC(=O)c3ccc([N+](=O)[O-])cc3)CC1C(=O)N2 (stereo not shown) | – | – | ring closure, yield of all isomers ([1]; from C=CCCCCN(C)C(=O)N1CC(OC(=O)c2ccc([N+](=O)[O-])cc2)CC1C(=O)NC1(C(=O)OCC)CC1C=C, 1.64 mM, 20.0 h): 51%
CCOC(=O)C12CC1C=CCCCCN(C)C(=O)N1CC(Oc3nc(Cl)cc4cc(OC)ccc34)CC1C(=O)N2 (stereo not shown) | – | – | ring closure, yield of all isomers ([1]; from C=CCCCCN(C)C(=O)N1CC(Oc2nc(Cl)cc3cc(OC)ccc23)CC1C(=O)NC1(C(=O)OCC)CC1C=C, 2.17 mM, 20.0 h): 58%
CCOC(=O)C12CC1C=CCCCCN(C)C(=O)N1CC(Oc3ncc(Br)c4cc(OC)ccc34)CC1C(=O)N2 (stereo not shown) | – | – | ring closure, yield of all isomers ([1]; from C=CCCCCN(C)C(=O)N1CC(Oc2ncc(Br)c3cc(OC)ccc23)CC1C(=O)NC1(C(=O)OCC)CC1C=C, 1.55 mM, 20.0 h): 38%
COc1ccc2c(O[C@@H]3C[C@H]4C(=O)N[C@]5(C(=O)O)C[C@H]5/C=C\CCCCN(C)C(=O)[C@@H]4C3)nc(-c3nc(C(C)C)cs3)cc2c1 [Compound 31, 17-[3-(4-isopropylthiazol-2-yl)-6-methoxyisoquinolin-1-yloxy]-13-methyl-2,14-dioxo-3,13-diazatricyclo[13.3.0.0^4,6]octadec-7-ene-4-carboxylic acid] | > 10 | 0.3 | –
COc1ccc2c(O[C@@H]3C[C@H]4C(=O)N[C@]5(C(=O)NS(=O)(=O)C6CC6)C[C@H]5/C=C\CCCCN(C)C(=O)[C@@H]4C3)nc(-c3nc(C(C)C)cs3)cc2c1 [Compound 32, N-[17-[3-(4-isopropylthiazol-2-yl)-6-methoxyisoquinolin-1-yloxy]-13-methyl-2,14-dioxo-3,13-diazatricyclo[13.3.0.0^4,6]octadec-7-ene-4-carbonyl](cyclopropyl)sulfonamide] | 3.57 | 0.0014 | –
COc1ccc2c(O[C@@H]3C[C@H]4C(=O)N[C@]5(C(=O)O)C[C@H]5/C=C\CCCCN(C)C(=O)[C@@H]4C3)nc(-c3csc(NC(C)C)n3)cc2c1 [Compound 33, 17-[3-(2-isopropylaminothiazol-4-yl)-6-methoxyisoquinolin-1-yloxy]-13-methyl-2,14-dioxo-3,13-diazatricyclo[13.3.0.0^4,6]octadec-7-ene-4-carboxylic acid] | 47.5 | > 1 | –
COc1ccc2c(O[C@@H]3C[C@H]4C(=O)N[C@]5(C(=O)NS(=O)(=O)C6CC6)C[C@H]5/C=C\CCCCN(C)C(=O)[C@@H]4C3)nc(-c3csc(NC(C)C)n3)cc2c1 [Compound 34, N-[17-[3-(2-isopropylaminothiazol-4-yl)-6-methoxyisoquinolin-1-yloxy]-13-methyl-2,14-dioxo-3,13-diazatricyclo[13.3.0.0^4,6]octadec-7-ene-4-carbonyl](cyclopropyl)sulfonamide] | 1.65 | 0.0033 | –
COc1ccc2c(O[C@@H]3C[C@H]4C(=O)N[C@]5(C(=O)O)C[C@H]5/C=C\CCCCN(C)C(=O)[C@@H]4C3)nc(-n3cccn3)cc2c1 [Compound 35, 17-[3-(pyrazol-1-yl)-6-methoxyisoquinolin-1-yloxy]-13-methyl-2,14-dioxo-3,13-diazatricyclo[13.3.0.0^4,6]octadec-7-ene-4-carboxylic acid] | – | > 1 | EC50 [2]: 20.9 µM
COc1ccc2c(O[C@@H]3C[C@H]4C(=O)N[C@]5(C(=O)NS(=O)(=O)C6CC6)C[C@H]5/C=C\CCCCN(C)C(=O)[C@@H]4C3)nc(-n3cccn3)cc2c1 [Compound 36, N-[17-[3-(pyrazol-1-yl)-6-methoxyisoquinolin-1-yloxy]-13-methyl-2,14-dioxo-3,13-diazatricyclo[13.3.0.0^4,6]octadec-7-ene-4-carbonyl]-(cyclopropyl) sulfonamide] | 0.072 | 0.0007 | –
COc1ccc2c(O[C@@H]3C[C@H]4C(=O)N[C@]5(C(=O)O)C[C@H]5/C=C\CCCCN(C)C(=O)N4C3)nc(Cl)cc2c1 [Compound 42, 17-(3-chloro-6-methoxyisoquinolin-1-yloxy)-13-methyl-2,14-dioxo-3,13,15-triaza-tricyclo[13.3.0.0^4,6]octadec-7-ene-4-carboxylic acid] | > 10 | 0.62 | –
COc1ccc2c(O[C@@H]3C[C@H]4C(=O)N[C@]5(C(=O)NS(=O)(=O)C6CC6)C[C@H]5/C=C\CCCCN(C)C(=O)N4C3)nc(Cl)cc2c1 [Compound 43, N-[17-(3-chloro-6-methoxyisoquinolin-1-yloxy)-13-methyl-2,14-dioxo-3,13,15-triaza-tricyclo[13.3.0.0^4,6]octadec-7-ene-4-carbonyl](cyclopropyl) sulfonamide] | 2.1 | 0.015 | –
COc1ccc2c(O[C@@H]3C[C@H]4C(=O)N[C@]5(C(=O)NS(=O)(=O)C6CC6)C[C@H]5/C=C\CCCCN(C)C(=O)N4C3)nccc2c1Br [Compound 51, N-[17-(5-bromo-6-methoxyisoquinolin-1-yloxy)-13-methyl-2,14-dioxo-3,13,15-triaza-tricyclo[13.3.0.0^4,6]octadec-7-ene-4-carbonyl](cyclopropyl)sulfonamide] | 0.058 | 0.0017 | –
COc1ccc2c(O[C@@H]3C[C@H]4C(=O)N[C@]5(C(=O)O)C[C@H]5/C=C\CCCCN(C)C(=O)N4C3)nccc2c1 [Compound 55, 17-(6-methoxyisoquinolin-1-yloxy)-13-methyl-2,14-dioxo-3,13,15-triaza-tricyclo[13.3.0.0^4,6]octadec-7-ene-4-carboxylic acid] | > 100 | > 1 | –
COc1ccc2c(O[C@@H]3C[C@H]4C(=O)N[C@]5(C(=O)NS(=O)(=O)C6CC6)C[C@H]5/C=C\CCCCN(C)C(=O)N4C3)nc(-c3ccccc3)cc2c1 [Compound 56, N-[17-(3-phenyl-6-methoxyisoquinolin-1-yloxy)-13-methyl-2,14-dioxo-3,13,15-triaza-tricyclo[13.3.0.0^4,6]octadec-7-ene-4-carbonyl](cyclopropyl) sulfonamide] | – | 0.0011 | EC50 [2]: 1.03 µM
COc1ccc2c(O[C@@H]3C[C@H]4C(=O)N[C@]5(C(=O)O)C[C@H]5/C=C\CCCCN(C)C(=O)N4C3)nc(-c3ccc(OC(F)(F)F)cc3)cc2c1 [Compound 57, 17-(3-(4-trifluoromethoxyphenyl)-6-methoxyisoquinolin-1-yloxy)-13-methyl-2,14-dioxo-3,13,15-triaza-tricyclo[13.3.0.0^4,6]octadec-7-ene-4-carboxylic acid] | 8.09 | 0.21 | –
COc1ccc2c(O[C@@H]3C[C@H]4C(=O)N[C@]5(C(=O)O)C[C@H]5/C=C\CCCCN(C)C(=O)N4C3)nc(-n3cccn3)cc2c1 [Compound 67, 17-(3-pyrazol-1-yl-6-methoxyisoquinolin-1-yloxy)-13-methyl-2,14-dioxo-3,13,15-triaza-tricyclo[13.3.0.0^4,6]octadec-7-ene-4-carboxylic acid] | > 10 | > 1 | –
COc1ccc2c(O[C@@H]3C[C@H]4C(=O)N[C@]5(C(=O)NS(=O)(=O)C6CC6)C[C@H]5/C=C\CCCCN(C)C(=O)N4C3)nc(-n3cccn3)cc2c1 [Compound 68, N-[17-(3-pyrazol-1-yl-6-methoxyisoquinolin-1-yloxy)-13-methyl-2,14-dioxo-3,13,15-triaza-tricyclo[13.3.0.0^4,6]octadec-7-ene-4-carbonyl](cyclopropyl)sulfonamide] | 0.165 | 0.0025 | –
COc1ccc2c(O[C@@H]3C[C@H]4C(=O)N[C@]5(C(=O)NS(=O)(=O)C6CC6)C[C@H]5/C=C\CCCCN(C)C(=O)N4C3)nc(-c3nc(C(C)C)cs3)cc2c1 [Compound 70, N-[17-[3-(4-isopropylthiazol-2-yl)-6-methoxyisoquinolin-1-yloxy]-13-methyl-2,14-dioxo-3,13,15-triaza-tricyclo[13.3.0.0^4,6]octadec-7-ene-4-carbonyl](cyclopropyl)sulfonamide] | 6.73 | 0.033 | –
